The source made the active and inactive calls. No cut-off for these calls is given here.
How the values were obtained:
[1] = biological target: T1, Ribonuclease pancreatic (Bos taurus) (UniProt P61823); assay: Inhibition of bovine pancreatic RNase A assessed as degradation of tRNA at 1.9 mM after 6 hrs using ethidium bromide staining by agarose gel-based assay
T1 sequence (whole entry): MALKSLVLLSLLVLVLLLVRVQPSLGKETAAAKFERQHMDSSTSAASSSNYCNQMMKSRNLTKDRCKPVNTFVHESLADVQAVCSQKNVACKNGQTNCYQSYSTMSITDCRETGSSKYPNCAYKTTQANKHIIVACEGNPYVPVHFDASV

Ribonuclease pancreatic = biological target: T2, Ribonuclease pancreatic (Bos taurus, UniProt P61823); assay: Competitive inhibition of bovine pancreatic RNase A ribonucleolytic activity of by Dixon plot analysis
T2 sequence (P61823 whole entry): T1 sequence (whole entry)

[2] = biological target: T1, Ribonuclease pancreatic (Bos taurus); assay: Inhibition of bovine pancreatic RNase A ribonucleolytic activity of RNase A at 2.5 mM after 2 hrs by precipitation assay

| SMILES | inhibition [1] | Ki (Ribonuclease pancreatic) | inhibition [2] |
| --- | --- | --- | --- |
| Cc1cn([C@H]2C[C@H](NC(=O)C(N)CC(=O)O)[C@@H](CO)O2)c(=O)[nH]c1=O (some centres undefined) | Active | 37 µM | 47.6% |
| Nc1ncnc2c1ncn2[C@@H]1O[C@H](C(=O)O)[C@@H](O)[C@H]1O [5'-CARBOXY ADENOSINE] | Active | 67 µM | 32.2% |
| Cc1cn([C@H]2C[C@H](O)[C@@H](C(=O)O)O2)c(=O)[nH]c1=O [5'-CARBOXY THYMIDINE] | Active | 193 µM | 23.5% |

Reference: ChEMBL document CHEMBL1287743, “Comparative inhibitory activity of 3'- and 5'-functionalized nucleosides on ribonuclease A” (Bioorg Med Chem, 2010)
